Data taken from ChEMBL document CHEMBL3351305, “Structure-based design of a novel series of azetidine inhibitors of the hepatitis C virus NS3/4A serine protease” (Bioorg Med Chem Lett, 2014).
Calls of active or inactive are those of the source. The calls are words filed in the database; no cut-off is given here.

Key:
[1] = tested on: Hepatitis C virus serine protease, NS3/NS4A (Hepatitis C virus), D2K2A8+A3EZI9 [A156S]; experiment: Inhibition of Hepatitis C virus genotype 1b Con1 NS3/4A A156S mutant by FRET assay; conditions: Hepatitis C virus (isolate Con1)
[2] = target: Hepatitis C virus serine protease, NS3/NS4A (Hepatitis C virus, UniProt A3EZI9+D2K2A8); experiment: Inhibition of full length Hepatitis C virus genotype 1b Con1 NS3/4A by FRET assay; set-up: species or system Hepatitis C virus (isolate Con1)
Hepatitis C virus serine protease, NS3/NS4A, sequence (D2K2A8 whole entry): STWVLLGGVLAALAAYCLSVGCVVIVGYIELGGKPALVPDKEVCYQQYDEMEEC
Hepatitis C virus serine protease, NS3/NS4A, sequence (A3EZI9 whole entry): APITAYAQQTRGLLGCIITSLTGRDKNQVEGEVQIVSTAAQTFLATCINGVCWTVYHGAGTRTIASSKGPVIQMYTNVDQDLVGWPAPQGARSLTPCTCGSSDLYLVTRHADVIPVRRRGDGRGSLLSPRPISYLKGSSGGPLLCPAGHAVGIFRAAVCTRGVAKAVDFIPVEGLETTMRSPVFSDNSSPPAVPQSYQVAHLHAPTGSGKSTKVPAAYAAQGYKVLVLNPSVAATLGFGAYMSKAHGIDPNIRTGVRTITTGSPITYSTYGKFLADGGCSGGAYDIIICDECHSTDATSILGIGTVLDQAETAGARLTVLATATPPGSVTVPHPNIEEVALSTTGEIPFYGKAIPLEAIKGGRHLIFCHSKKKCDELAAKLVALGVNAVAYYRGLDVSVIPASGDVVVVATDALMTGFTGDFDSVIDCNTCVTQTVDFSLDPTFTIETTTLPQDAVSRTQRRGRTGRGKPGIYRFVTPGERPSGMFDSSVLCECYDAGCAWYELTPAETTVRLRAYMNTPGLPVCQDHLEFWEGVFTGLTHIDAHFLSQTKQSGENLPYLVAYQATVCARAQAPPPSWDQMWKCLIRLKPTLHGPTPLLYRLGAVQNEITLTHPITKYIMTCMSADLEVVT

[3] = tested on: Hepatitis C virus; experiment: Antiviral activity against Hepatitis C virus genotype 1b Con1 infected in human Huh7 cells assessed as inhibition of NS4A expression by ELISA; assay type: functional, cell-based, Hepacivirus hominis; conditions: genotype 1b Con1, Huh-7
[4] = Inhibition of human leukocyte elastase
[5] = Clearance in rat liver microsomes assessed per mg protein; assay type: ADME; conditions: read-out: CLH
[6] = Clearance in cynomolgus monkey liver microsomes assessed per mg protein; assay type: ADME, Macaca fascicularis; conditions: read-out: CLH
[7] = Clearance in human liver microsomes assessed per mg protein; assay type: ADME; conditions: read-out: CLH
[8] = Half life in rat liver microsomes; assay type: ADME
[9] = Half life in cynomolgus monkey liver microsomes; assay type: ADME, Macaca fascicularis
[10] = Half life in human liver microsomes; assay type: ADME
[11] = Selectivity index, ratio of CC50 for human Huh7 cells to EC50 for Hepatitis C virus genotype 1b Con1; assay type: toxicity, cell-based, Huh-7; conditions: read-out: Ratio CC50/EC50

SMILES: CC(C)(C)NC(=O)N[C@H](C(=O)N1C[C@H]2[C@@H]([C@H]1C(=O)NC(CC1CCC1)C(=O)C(N)=O)C2(C)C)C(C)(C)C (some centres not stated)
- inhibition [1]: inactive

SMILES: COc1ccc2c(O[C@@H]3C[C@H]4C(=O)N[C@]5(C(=O)O)C[C@H]5/C=C\CCCCC[C@H](NC(=O)OC5CCCC5)C(=O)N4C3)cc(-c3csc(NC(C)C)n3)nc2c1 [CILUPREVIR]
- IC50 [2]: 0.8 nM
- EC50 [3]: 2.8 nM

SMILES: COc1ccc2c(OC[C@@H]3C[C@H]4C(=O)N(C)CCCC/C=C\[C@H]5C[C@]5(C(=O)NS(=O)(=O)C5(C)CC5)NC(=O)N34)cc(-c3nc(C(C)C)cs3)nc2c1
- IC50 [2]: 1.3 nM
- EC50 [3]: 412 nM

SMILES: CCC[C@H](NC(=O)[C@@H]1[C@H]2CCC[C@H]2CN1C(=O)[C@@H](NC(=O)[C@@H](NC(=O)c1cnccn1)C1CCCCC1)C(C)(C)C)C(=O)C(=O)NC1CC1 [TELAPREVIR]
- inhibition [1]: inactive
- IC50 [4]: 600 nM

SMILES: COc1ccc2c(OC[C@@H]3C[C@H]4C(=O)N(C)CCCC/C=C\[C@H]5C[C@]5(C(=O)NS(=O)(=O)C5CC5)NC(=O)N34)cc(-c3nc(C(C)C)cs3)nc2c1C
- IC50 [2]: < 1000 nM
- EC50 [3]: < 750 nM

SMILES: COc1ccc2c(OC[C@H]3C[C@@H]4C(=O)N[C@@]5(C(=O)NS(=O)(=O)C6CC6)C[C@@H]5/C=C\CCCCN(C)C(=O)N34)cc(-c3ccccc3)nc2c1
- IC50 [2]: 278 nM

SMILES: COc1ccc2c(OC[C@@H]3C[C@H]4C(=O)N(C)CCCC/C=C\[C@H]5C[C@]5(C(=O)NS(=O)(=O)C5CC5)NC(=O)N34)cc(-c3ccccc3)nc2c1
- IC50 [2]: 45 nM
- EC50 [3]: 1860 nM

SMILES: COc1ccc2c(OC[C@@H]3C[C@H]4C(=O)N(C)CCCC/C=C\[C@H]5C[C@]5(C(=O)NS(=O)(=O)C5(C)CC5)NC(=O)N34)cc(-c3nc(C(C)C)cs3)nc2c1F
- IC50 [2]: 16.8 nM
- EC50 [3]: 872 nM
- inhibition [1]: inactive

SMILES: COc1ccc2c(OC[C@@H]3C[C@H]4C(=O)N(C)CCCC/C=C\[C@H]5C[C@]5(C(=O)NS(=O)(=O)C5CC5)NC(=O)N34)cc(-c3nc(C(C)C)cs3)nc2c1Cl
- IC50 [2]: < 1000 nM
- EC50 [3]: < 750 nM

SMILES: COc1ccc2c(OC[C@H]3C[C@@H]4C(=O)N(C)CCCC/C=C\[C@H]5C[C@]5(C(=O)NS(=O)(=O)C5CC5)NC(=O)N34)cc(-c3ccccc3)nc2c1
- IC50 [2]: 3.5 nM
- EC50 [3]: 242 nM

SMILES: COc1ccc2c(OC[C@@H]3C[C@H]4C(=O)N(C)CCCC/C=C\[C@H]5C[C@]5(C(=O)NS(=O)(=O)C5(C)CC5)NC(=O)N34)cc(-c3nc(C(C)C)cs3)nc2c1C
- IC50 [2]: 6.6 nM
- EC50 [3]: 45 nM
- microsomal CLint [5]: > 150 µL/min/mg
- microsomal CLint [6]: > 150 µL/min/mg
- microsomal CLint [7]: > 150 µL/min/mg
- half-life [8]: < 10 min
- half-life [9]: < 10 min
- half-life [10]: < 10 min

SMILES: COc1ccc2c(OC[C@@H]3C[C@H]4C(=O)N[C@@]5(C(=O)NS(=O)(=O)C6CC6)C[C@@H]5/C=C\CCCCN(C)C(=O)N34)cc(-c3ccccc3)nc2c1
- IC50 [2]: 2400 nM

SMILES: COc1ccc2c(OC[C@@H]3C[C@H]4C(=O)N(C)CCCC/C=C\[C@H]5C[C@]5(C(=O)NS(=O)(=O)C5(C)CC5)NC(=O)N34)cc(-c3nc(C(C)C)cs3)nc2c1Cl
- IC50 [2]: 2.1 nM
- EC50 [3]: 60 nM
- selectivity ratio [11]: > 1500
- microsomal CLint [5]: > 150 µL/min/mg
- microsomal CLint [6]: > 150 µL/min/mg
- microsomal CLint [7]: > 150 µL/min/mg
- half-life [8]: < 10 min
- half-life [9]: < 10 min
- half-life [10]: < 10 min
